{"source": "paper PMC4447944", "about": "(The Journal of Biological Chemistry, 2015)", "key": {"[1]": {"tested_on": "mono-methyl-Lys370 p53", "experiment": "Meso Scale Discovery sandwich ELISA mono-methyl-Lys370 p53/total p53, KYSE-150 cells stably expressing FLAG-SMYD2", "assay_type": "cell-based", "conditions": "Homo sapiens; KYSE-150 stably expressing SMYD2, sandwich ELISA, 24 h", "experimental": "Cell lysates were subject to 10% SDS-PAGE and transferred to a PVDF membrane. Each membrane was blocked in Odyssey Blocking Buffer (LI-COR Biosciences) and incubated with monoclonal anti-p53 (D01) antibody (Abcam, ab1101) or rabbit anti-p53 Lys^370me1 antibody (a kind gift from Dr. Shelley Berger) followed by detection with IRDye®680RD goat anti-mouse IgG (LI-COR Biosciences) and IRDye800CW goat anti-rabbit IgG (LI-COR Biosciences) on the Odyssey Imager (LI-COR Biosciences). […] 4–8 h later, cells were treated with 0–25 μM compound for 15 h. […] 24 h later, cells were lysed with 200 μl of MSD Tris Lysis Buffer^TM (Meso Scale Discovery). A MULTI-ARRAY^TM 96-well plate (Meso Scale Discovery, catalog number L15XA-3) was precoated with 2 μg/ml custom-made methyl-p53 antibody (Lampire) in PBS overnight at 4 °C. 150 μl/well MSD Blocking Solution A^TM (final concentration of 3%) was added followed by shaking at room temperature for 1 h. The plate was washed three times with 1× MSD Tris Wash Buffer^TM (Meso Scale Discovery). 0.5 μg of cell lysate in 25 μl/well MSD Tris Lysis Buffer was added, followed by shaking overnight at 4 °C. […] Following a final wash three times with 1× MSD Tris Wash Buffer, 150 μl/well 1× MSD Read Buffer^TM (Meso Scale Discovery) was added, and plates were read on an MSD SECTOR^TM Imager 6000 instrument (Meso Scale Discovery)."}, "[2]": {"target": "T1, hACVR1B (Homo sapiens, UniProt P36896)", "T1 construct": "purchased DiscoverX (KINOMEscan platform)", "experiment": "KINOMEscan", "assay_type": "binding"}, "[3]": {"target": "T2, hCAMK2B (Homo sapiens, UniProt Q13554)", "T2 construct": "purchased DiscoverX", "experiment": "KINOMEscan", "assay_type": "binding"}, "[4]": {"target": "T3, hCAMK4 (Homo sapiens, UniProt Q16566)", "T3 construct": "purchased DiscoverX", "experiment": "KINOMEscan", "assay_type": "binding"}, "[5]": {"target": "T4, hCHEK2 (Homo sapiens, UniProt O96017)", "T4 construct": "purchased DiscoverX", "experiment": "KINOMEscan", "assay_type": "binding"}, "[6]": {"target": "T5, hDAPK3 (Homo sapiens, UniProt O43293)", "T5 construct": "purchased DiscoverX (KINOMEscan platform)", "experiment": "KINOMEscan", "assay_type": "binding"}, "[7]": {"target": "T6, hDDR1 (Homo sapiens, UniProt Q08345)", "T6 construct": "purchased DiscoverX (KINOMEscan platform)", "T6 sequence (Q08345 19-913)": "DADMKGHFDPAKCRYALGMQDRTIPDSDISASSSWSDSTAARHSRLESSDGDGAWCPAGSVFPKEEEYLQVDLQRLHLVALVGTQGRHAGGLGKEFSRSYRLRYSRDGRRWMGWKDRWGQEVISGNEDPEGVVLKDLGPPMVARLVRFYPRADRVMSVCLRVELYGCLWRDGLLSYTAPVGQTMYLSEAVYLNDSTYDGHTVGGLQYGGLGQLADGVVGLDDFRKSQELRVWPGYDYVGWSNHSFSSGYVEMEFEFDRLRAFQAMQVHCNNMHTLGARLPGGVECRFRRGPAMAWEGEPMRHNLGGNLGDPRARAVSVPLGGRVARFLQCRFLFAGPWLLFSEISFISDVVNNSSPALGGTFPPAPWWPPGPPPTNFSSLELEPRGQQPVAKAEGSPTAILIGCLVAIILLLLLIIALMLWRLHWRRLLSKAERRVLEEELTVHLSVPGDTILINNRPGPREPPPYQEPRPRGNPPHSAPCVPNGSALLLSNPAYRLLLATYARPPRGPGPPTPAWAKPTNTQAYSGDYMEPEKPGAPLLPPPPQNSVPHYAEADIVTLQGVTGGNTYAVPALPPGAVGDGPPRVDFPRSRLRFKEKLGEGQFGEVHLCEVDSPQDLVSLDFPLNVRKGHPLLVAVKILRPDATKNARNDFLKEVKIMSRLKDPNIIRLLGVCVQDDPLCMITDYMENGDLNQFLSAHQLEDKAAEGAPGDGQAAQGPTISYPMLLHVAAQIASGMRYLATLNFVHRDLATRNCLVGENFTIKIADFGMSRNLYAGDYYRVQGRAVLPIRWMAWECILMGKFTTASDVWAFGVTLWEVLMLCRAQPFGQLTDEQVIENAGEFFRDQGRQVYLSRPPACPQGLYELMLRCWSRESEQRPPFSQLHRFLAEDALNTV", "experiment": "KINOMEscan", "assay_type": "binding"}, "[8]": {"target": "T7, hEGFR(L747-E749del, A750P) (Homo sapiens, UniProt P00533, A750P/DEL747-749)", "T7 construct": "purchased DiscoverX", "experiment": "KINOMEscan", "assay_type": "binding"}, "[9]": {"target": "T8, hEGFR(L747-S752del, P753S) (Homo sapiens, UniProt P00533, DEL747-752/P753S)", "T8 construct": "purchased DiscoverX", "experiment": "KINOMEscan", "assay_type": "binding"}, "[10]": {"target": "T9, hFGFR2 (Homo sapiens, UniProt P21802)", "T9 construct": "purchased DiscoverX", "experiment": "KINOMEscan", "assay_type": "binding"}, "[11]": {"target": "T10, hFLT1 (Homo sapiens, UniProt P17948)", "T10 construct": "purchased DiscoverX", "experiment": "KINOMEscan", "assay_type": "binding"}, "[12]": {"target": "T11, hGRK4 (Homo sapiens, UniProt P32298)", "T11 construct": "purchased DiscoverX", "T11 sequence (P32298 whole entry)": "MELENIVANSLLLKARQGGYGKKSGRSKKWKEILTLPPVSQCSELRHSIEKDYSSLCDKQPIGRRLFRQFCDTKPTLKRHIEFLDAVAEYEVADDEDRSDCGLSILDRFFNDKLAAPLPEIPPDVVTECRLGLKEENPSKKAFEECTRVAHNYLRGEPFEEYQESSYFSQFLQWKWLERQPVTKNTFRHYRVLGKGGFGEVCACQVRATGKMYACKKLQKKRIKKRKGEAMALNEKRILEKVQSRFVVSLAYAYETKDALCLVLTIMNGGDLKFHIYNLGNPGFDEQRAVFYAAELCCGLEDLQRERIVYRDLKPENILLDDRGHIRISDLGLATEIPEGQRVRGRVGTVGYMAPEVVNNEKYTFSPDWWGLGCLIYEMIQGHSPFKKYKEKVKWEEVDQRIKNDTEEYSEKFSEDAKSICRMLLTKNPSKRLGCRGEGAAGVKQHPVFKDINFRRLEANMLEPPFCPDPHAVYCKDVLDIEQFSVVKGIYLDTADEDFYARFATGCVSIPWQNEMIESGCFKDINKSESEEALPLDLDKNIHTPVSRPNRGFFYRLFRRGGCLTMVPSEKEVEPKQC", "experiment": "KINOMEscan", "assay_type": "binding"}, "[13]": {"target": "T12, hHIPK2 (Homo sapiens, UniProt Q9H2X6)", "T12 construct": "purchased DiscoverX", "experiment": "KINOMEscan", "assay_type": "binding"}, "[14]": {"target": "T13, hIKK-beta (Homo sapiens, UniProt O14920)", "T13 construct": "purchased DiscoverX (KINOMEscan panel)", "T13 sequence (O14920 whole entry)": "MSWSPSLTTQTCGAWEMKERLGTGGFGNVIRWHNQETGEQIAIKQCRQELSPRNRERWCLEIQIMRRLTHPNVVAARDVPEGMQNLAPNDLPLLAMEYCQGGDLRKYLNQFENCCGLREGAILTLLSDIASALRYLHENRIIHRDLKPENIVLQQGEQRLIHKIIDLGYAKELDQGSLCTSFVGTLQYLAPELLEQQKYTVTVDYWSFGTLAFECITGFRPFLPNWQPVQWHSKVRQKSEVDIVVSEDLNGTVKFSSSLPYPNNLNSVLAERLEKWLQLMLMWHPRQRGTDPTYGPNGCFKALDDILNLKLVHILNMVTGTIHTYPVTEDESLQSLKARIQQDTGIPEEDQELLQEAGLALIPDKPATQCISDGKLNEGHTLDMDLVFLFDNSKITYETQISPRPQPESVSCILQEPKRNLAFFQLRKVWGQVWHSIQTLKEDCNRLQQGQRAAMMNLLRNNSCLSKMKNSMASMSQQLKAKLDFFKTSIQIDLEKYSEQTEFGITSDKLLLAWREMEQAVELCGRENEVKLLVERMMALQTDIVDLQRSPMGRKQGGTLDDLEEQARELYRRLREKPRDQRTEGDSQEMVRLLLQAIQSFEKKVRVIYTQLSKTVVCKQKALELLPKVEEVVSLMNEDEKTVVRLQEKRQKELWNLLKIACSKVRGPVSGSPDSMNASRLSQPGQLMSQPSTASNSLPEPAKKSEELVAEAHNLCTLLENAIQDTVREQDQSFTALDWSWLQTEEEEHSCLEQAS", "experiment": "KINOMEscan", "assay_type": "binding"}, "[15]": {"target": "T14, hIRAK1 (Homo sapiens, UniProt P51617)", "T14 construct": "purchased DiscoverX (KINOMEscan panel)", "T14 sequence (P51617 whole entry)": "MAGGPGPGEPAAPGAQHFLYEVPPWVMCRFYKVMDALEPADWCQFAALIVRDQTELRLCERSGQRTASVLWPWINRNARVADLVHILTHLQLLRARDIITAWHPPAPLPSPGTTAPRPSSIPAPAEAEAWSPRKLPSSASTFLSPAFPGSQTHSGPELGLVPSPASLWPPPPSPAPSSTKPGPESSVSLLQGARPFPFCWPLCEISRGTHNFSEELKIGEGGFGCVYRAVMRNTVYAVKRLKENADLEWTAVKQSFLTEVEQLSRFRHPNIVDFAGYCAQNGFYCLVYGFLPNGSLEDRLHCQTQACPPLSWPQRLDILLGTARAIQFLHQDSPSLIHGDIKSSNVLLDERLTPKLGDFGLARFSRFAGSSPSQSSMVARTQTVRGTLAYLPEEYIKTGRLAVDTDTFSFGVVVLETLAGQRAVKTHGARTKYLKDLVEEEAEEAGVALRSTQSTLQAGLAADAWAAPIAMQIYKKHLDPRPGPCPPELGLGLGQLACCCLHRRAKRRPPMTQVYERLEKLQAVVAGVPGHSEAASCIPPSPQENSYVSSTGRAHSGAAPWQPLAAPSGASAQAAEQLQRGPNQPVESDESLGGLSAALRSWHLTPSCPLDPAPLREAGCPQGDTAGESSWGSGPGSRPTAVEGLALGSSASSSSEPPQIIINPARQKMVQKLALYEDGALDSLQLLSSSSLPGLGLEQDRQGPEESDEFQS", "experiment": "KINOMEscan", "assay_type": "binding"}, "[16]": {"target": "T15, hLATS2 (Homo sapiens, UniProt Q9NRM7)", "T15 construct": "purchased DiscoverX (KINOMEscan platform)", "experiment": "KINOMEscan", "assay_type": "binding"}, "[17]": {"target": "T16, hLCK (Homo sapiens, UniProt P06239)", "T16 construct": "purchased DiscoverX (KINOMEscan platform)", "experiment": "KINOMEscan", "assay_type": "binding"}, "[18]": {"target": "T17, hMAP4K5 (Homo sapiens, UniProt Q9Y4K4)", "T17 construct": "purchased DiscoverX", "T17 sequence (Q9Y4K4 whole entry)": "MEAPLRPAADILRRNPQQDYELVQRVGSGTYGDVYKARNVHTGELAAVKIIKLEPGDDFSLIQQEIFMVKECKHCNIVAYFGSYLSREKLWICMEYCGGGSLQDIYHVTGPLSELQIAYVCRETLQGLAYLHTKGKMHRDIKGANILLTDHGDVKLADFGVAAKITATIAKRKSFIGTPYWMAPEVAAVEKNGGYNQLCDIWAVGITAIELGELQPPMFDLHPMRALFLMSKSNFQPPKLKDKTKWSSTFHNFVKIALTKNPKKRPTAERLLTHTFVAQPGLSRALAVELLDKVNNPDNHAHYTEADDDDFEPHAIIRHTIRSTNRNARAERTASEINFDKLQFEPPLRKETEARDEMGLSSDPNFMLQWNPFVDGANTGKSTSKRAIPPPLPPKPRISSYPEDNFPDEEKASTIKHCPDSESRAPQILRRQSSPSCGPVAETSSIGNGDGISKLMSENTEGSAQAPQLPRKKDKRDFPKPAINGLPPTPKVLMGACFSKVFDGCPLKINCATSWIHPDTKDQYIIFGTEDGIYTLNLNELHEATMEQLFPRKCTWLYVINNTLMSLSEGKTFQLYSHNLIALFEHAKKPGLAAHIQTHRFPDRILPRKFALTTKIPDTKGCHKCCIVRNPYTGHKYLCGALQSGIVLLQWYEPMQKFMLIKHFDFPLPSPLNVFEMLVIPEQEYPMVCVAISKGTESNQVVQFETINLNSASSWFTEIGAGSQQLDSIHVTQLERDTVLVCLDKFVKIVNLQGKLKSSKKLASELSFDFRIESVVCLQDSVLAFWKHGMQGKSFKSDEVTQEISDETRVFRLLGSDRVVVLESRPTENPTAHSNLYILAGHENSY", "experiment": "KINOMEscan", "assay_type": "binding"}, "[19]": {"target": "T18, hMKNK1 (Homo sapiens, UniProt Q9BUB5)", "T18 construct": "purchased DiscoverX", "experiment": "KINOMEscan", "assay_type": "binding"}, "[20]": {"target": "T19, hPYK2 (Homo sapiens, UniProt Q14289)", "T19 construct": "purchased DiscoverX", "T19 sequence (Q14289 whole entry)": "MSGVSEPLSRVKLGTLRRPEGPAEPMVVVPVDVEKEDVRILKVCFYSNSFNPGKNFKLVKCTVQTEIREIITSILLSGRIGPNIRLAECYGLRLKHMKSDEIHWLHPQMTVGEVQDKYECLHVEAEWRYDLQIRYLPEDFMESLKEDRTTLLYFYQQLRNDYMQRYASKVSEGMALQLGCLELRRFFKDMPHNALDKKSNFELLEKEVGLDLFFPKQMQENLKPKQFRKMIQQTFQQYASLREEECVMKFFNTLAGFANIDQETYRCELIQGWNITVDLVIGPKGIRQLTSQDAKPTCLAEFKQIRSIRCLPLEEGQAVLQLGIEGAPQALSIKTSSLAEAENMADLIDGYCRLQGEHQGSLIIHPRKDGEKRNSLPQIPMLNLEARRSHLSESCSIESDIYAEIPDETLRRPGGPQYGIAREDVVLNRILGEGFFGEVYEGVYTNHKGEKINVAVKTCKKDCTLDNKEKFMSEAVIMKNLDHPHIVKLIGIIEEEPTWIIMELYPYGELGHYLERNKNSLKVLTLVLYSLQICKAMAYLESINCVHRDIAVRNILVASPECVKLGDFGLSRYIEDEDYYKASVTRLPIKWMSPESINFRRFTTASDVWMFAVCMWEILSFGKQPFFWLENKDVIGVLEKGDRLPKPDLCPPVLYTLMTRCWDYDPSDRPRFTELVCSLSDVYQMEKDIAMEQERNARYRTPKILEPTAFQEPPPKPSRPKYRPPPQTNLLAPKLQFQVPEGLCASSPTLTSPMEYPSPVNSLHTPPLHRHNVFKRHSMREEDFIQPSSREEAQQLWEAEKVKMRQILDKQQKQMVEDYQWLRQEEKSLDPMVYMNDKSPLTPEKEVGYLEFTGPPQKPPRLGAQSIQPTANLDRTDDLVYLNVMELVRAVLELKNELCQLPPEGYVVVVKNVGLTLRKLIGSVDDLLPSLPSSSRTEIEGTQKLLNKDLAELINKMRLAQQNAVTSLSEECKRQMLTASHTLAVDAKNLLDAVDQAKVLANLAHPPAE", "experiment": "KINOMEscan", "assay_type": "binding"}, "[21]": {"target": "T20, hROCK1 (Homo sapiens, UniProt Q13464)", "T20 construct": "purchased DiscoverX (KINOMEscan platform)", "experiment": "KINOMEscan", "assay_type": "binding"}, "[22]": {"target": "T21, hRSK3(Kin.Dom.1-N-term) (Homo sapiens, UniProt Q15349)", "T21 construct": "hRSK3(Kin.Dom.1-N-term); purchased DiscoverX (KINOMEscan platform)", "T21 sequence (Q15349 59-318 limits assumed)": "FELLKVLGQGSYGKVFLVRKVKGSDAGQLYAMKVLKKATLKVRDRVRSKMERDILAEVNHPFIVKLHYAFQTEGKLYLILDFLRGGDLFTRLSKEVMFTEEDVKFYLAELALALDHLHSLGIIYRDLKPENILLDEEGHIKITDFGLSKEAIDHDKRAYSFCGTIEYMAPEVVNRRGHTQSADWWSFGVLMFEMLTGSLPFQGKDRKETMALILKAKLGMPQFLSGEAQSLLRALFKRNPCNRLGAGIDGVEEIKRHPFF", "experiment": "KINOMEscan", "assay_type": "binding"}, "[23]": {"target": "T22, hTYK2(JH1Dom.-catalytic) (Homo sapiens, UniProt P29597)", "T22 construct": "hTYK2(JH1Dom.-catalytic); purchased DiscoverX", "experiment": "KINOMEscan", "assay_type": "binding"}, "[24]": {"target": "T23, hADORA3 (Homo sapiens, UniProt P0DMS8)", "T23 sequence (P0DMS8 1-318)": "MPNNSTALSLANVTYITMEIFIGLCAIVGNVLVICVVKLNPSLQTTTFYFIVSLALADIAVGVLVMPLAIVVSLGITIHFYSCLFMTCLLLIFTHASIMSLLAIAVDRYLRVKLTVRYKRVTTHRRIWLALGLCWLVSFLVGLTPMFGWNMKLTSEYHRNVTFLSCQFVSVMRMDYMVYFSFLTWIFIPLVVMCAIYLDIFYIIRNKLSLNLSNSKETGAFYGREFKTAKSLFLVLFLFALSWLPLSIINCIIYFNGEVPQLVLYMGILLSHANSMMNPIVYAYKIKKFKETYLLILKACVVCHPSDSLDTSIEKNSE", "experiment": "cAMP Agonist (Eurofins-CEREP)", "conditions": "@ 10 μM"}, "[25]": {"target": "hD2L (Homo sapiens, UniProt P14416)", "experiment": "cAMP Agonist (Eurofins-CEREP)", "conditions": "@ 10 μM"}, "[26]": {"target": "T23, hADORA3", "experiment": "cAMP Potentiation (Eurofins-CEREP)", "conditions": "@ 10 μM"}}}
{"smiles": "Cc1cn(CCN2CCN(c3ccccc3-c3cc(C#N)cc(C(=O)NCCCN4CCCC4)c3)CC2)c2ccccc12", "note": "[LLY-507, 3-cyano-5-{2-[4-[2-(3-methylindol-1-yl)ethyl]piperazin-1-yl]-phenyl}-N-[(3-pyrrolidin-1-yl)propyl]benzamide]", "values": [{"measurement": "IC50", "setting": "[1]", "value": 0.6, "unit": "µM"}, {"measurement": "IC50", "setting": "[2]", "value": "> 20", "unit": "µM"}, {"measurement": "IC50", "setting": "[3]", "value": "> 20", "unit": "µM"}, {"measurement": "IC50", "setting": "[4]", "value": "> 20", "unit": "µM"}, {"measurement": "IC50", "setting": "[5]", "value": "> 20", "unit": "µM"}, {"measurement": "IC50", "setting": "[6]", "value": "> 20", "unit": "µM"}, {"measurement": "IC50", "setting": "[7]", "value": "> 20", "unit": "µM"}, {"measurement": "IC50", "setting": "[8]", "value": "> 20", "unit": "µM"}, {"measurement": "IC50", "setting": "[9]", "value": "> 20", "unit": "µM"}, {"measurement": "IC50", "setting": "[10]", "value": "> 20", "unit": "µM"}, {"measurement": "IC50", "setting": "[11]", "value": "> 20", "unit": "µM"}, {"measurement": "IC50", "setting": "[12]", "value": "> 20", "unit": "µM"}, {"measurement": "IC50", "setting": "[13]", "value": "> 20", "unit": "µM"}, {"measurement": "IC50", "setting": "[14]", "value": "> 20", "unit": "µM"}, {"measurement": "IC50", "setting": "[15]", "value": "> 20", "unit": "µM"}, {"measurement": "IC50", "setting": "[16]", "value": "> 20", "unit": "µM"}, {"measurement": "IC50", "setting": "[17]", "value": "> 20", "unit": "µM"}, {"measurement": "IC50", "setting": "[18]", "value": "> 20", "unit": "µM"}, {"measurement": "IC50", "setting": "[19]", "value": "> 20", "unit": "µM"}, {"measurement": "IC50", "setting": "[20]", "value": "> 20", "unit": "µM"}, {"measurement": "IC50", "setting": "[21]", "value": "> 20", "unit": "µM"}, {"measurement": "IC50", "setting": "[22]", "value": "> 20", "unit": "µM"}, {"measurement": "IC50", "setting": "[23]", "value": "> 20", "unit": "µM"}, {"measurement": "% Effect, Stimulation", "setting": "[24]", "value": 2.6, "unit": "%"}, {"measurement": "% Effect, Stimulation", "setting": "[25]", "value": 10.1, "unit": "%"}, {"measurement": "% Effect, Potentiation", "setting": "[26]", "value": -7.3, "unit": "%"}]}
